The source of these data is patent US20060031949A1, “Inducible expression systems for modulating the expression of target genes in eukaryotic cells and non-human animals” (priority 2004, published 2006).

For data set [1], the system named is Hif1 dependent transcriptional activity. The data set can be described thus: Hif1 reporter (1×HRE) luciferase activity in D54_Hif clones. The class given is cell-based, human. As to conditions: D54_Hif25 cells, 1 μg/ml doxycycline, hypoxia. Here is the method:
(§1) Cells were incubated in the presence or absence of 1 μg/ml doxycycline. After thirty-six hours, cells were either untreated (N) or subjected to hypoxia treatment (H) for an additional sixteen hours. The cells were lysed and analyzed by western blotting using antibodies against Hif1α (upper panel) or Hif1β (lower panel). […] Cells were transfected with either pGL3-control/pRL-TK (left panel) or 1×HRE/pRL-TK plasmids (right panel) in the presence or absence of 1 μg/ml doxycycline. Thirty-six hours following transfection, cells were subjected to hypoxia treatment. Luciferase activities were determined sixteen hours after hypoxia treatment. […] Cells were incubated in the presence or absence of 1 μg/ml doxycycline. After thirty-six hours, cells were either untreated (N) or subjected to hypoxia treatment (H) for an additional sixteen hours. Total RNA were prepared and used in quantitative PCR for analyzing the level of the indicated genes.
(§2) To assess the potential therapeutic effect of Hif1 inhibition, we established stable cell lines from D54MG parental cells that express an shRNA against Hif1α under the control of doxycycline. A panel of 8 shRNAs against Hif1α was first screened for their abilities to knockdown the target (data not shown), and the best shRNA was selected for the creation of Hif1α knockdown cell lines. […]

Data set [2] has as its system Hif1α. As to the kind of experiment: Hif1α knockdown in subcutaneous xenograft tumors (QPCR, IHC), doxycycline in drinking water. The class given is in vivo, SCID mice. As to conditions: D54_Hif25 tumors, 1 mg/ml doxycycline in drinking water for 3 days. Here is the method:
Mice bearing 200-300 mm^3 tumors were supplied with doxycycline (1 mg/ml) for 3, 6, 9 or 12 days. Tumors were collected at the end of treatment and Hif1α mRNA levels were determined by QPCR. Tumors from mice without Dox treatment were used as controls. […] Hif1α mRNA level was determined by QPCR. […] The Hif1α expression level was examined by IHC, and quantified using AxioVision 4 (Zeiss).
To determine whether target knockdown can be induced in xenograft tumors, the D54_Hif25 cells were injected subcutaneously into SCID mice. After tumors reached an average size of 200 mm^3, the mice were supplied with drinking water containing 1 mg/ml doxycycline to induce the expression of Hif1α shRNA. After treating the mice with doxycycline for 3, 6, 9, or 12 days, the tumors were collected and analyzed by QPCR to determine the Hif1α messenger level. […] Examination of the tumor samples by immunohistochemistry indicated a clear reduction of the Hif1α protein from day 3 onward (data not shown).
To determine whether the ability to induce target knockdown would be impaired over long-term doxycycline treatment or when the tumors reach a very large size, further analysis was performed of the knockdown of Hif1α in tumors from mice treated with doxycycline for 45 days. The average tumor size at the end of treatment was 2000 mm^3. […]

Data set [3] has as its system Hif1α. The data set can be described thus: Hif1α protein level (western) in D54_Hif clones with or without doxycycline. The class given is cell-based, human. As to conditions: D54_Hif18 cells, 1 μg/ml doxycycline. Here is the method: as §1, §2
The test system of the next data set is human Hif1α. The data set can be described thus: Western analysis of Hif1α protein in HeLaTREx stable clones carrying 2O2_Hif1, doxycycline induction. The class given is cell-based. Here is the method:
Cells were directly lysed on 6-well plates in 1× Laemmli sample buffer. Proteins were separated by SDS-PAGE, transferred to PVDF membrane, and western blotting was performed using antibodies against Chk1 (1:200, Santa Crutz Biotechnology, Santa Crutz, Calif. 95060), HIF-1 alpha (1:500, BD Bioscience, Palo Alto, Calif. 94303) or tetR (1:2000, Mo Bi Tec, Germany).
To determine whether the 2O2 promoter retains the ability to respond to doxycycline after integrating into chromosomes, the inventors used a commercial tetR expressing cell line, HeLaTREx, (Invitrogen Corp., Carlsbad, Calif. 92008) to establish stable clones that carried the 2O2 promoter linked to an shRNA targeting human Hif1α (2O2_Hif1).
Using the best-regulated 2O2_Hif1 clone (Hif1-7), the inventors further characterized the time and dose dependency of doxycycline induction of the 2O2 expression system. […] The doxycycline concentration that is required for maximal induction of the 2O2 system was determined in a dose-response experiment.

In the next data set the test system is tyrosinase. As to the kind of experiment: Tyrosinase knockdown mice by pronuclear injection of 2O2 promoter transgenes. The class given is in vivo. As to conditions: mice without tetR expression. On the procedure: Pronuclear injection is a well-established method for creating transgenic animals. In this approach, a DNA fragment (the transgene) is injected into the pronuclear stage of fertilized eggs, and the injected eggs are implanted into pseudopregnant animals. In a typical experiment, 50-80 eggs are injected in which half of the injected eggs will survive to generate neonates and 5%-20% of the neonates will contain the transgene.
Tyrosinase was selected as a target to knockdown. Tyrosinase is a key enzyme in melanin production, and the knockdown of tyrosinase in mice will generate an apparent coat color change.
To determine whether a modified pol III dependent promoter, such as the 2O2 promoter, is suitable for the creation of knockdown animals, transgenes were created that used the 2O2 promoters to express the two best shRNAs against tyrosinase (2O2-Tyr731 (SEQ ID NO: 46) and 2O2-Tyr338 (SEQ ID NO: 47)). These transgenes are shown below. The bold characters represent the shRNA sequences and the underscored characters represent the promoter sequences. […] In mice without tetR expression, the 2O2 promoter is expected to be constitutively active.

For `C[C@H]1c2cccc(O)c2C(=O)C2=C(O)[C@]3(O)C(=O)C(C(N)=O)=C(O)[C@@H](N(C)C)[C@@H]3[C@@H](O)[C@@H]21` [doxycycline], the “reduction of the Hif1 reporter activity” value in data set [1] was 80%. Further, in the data set with Hif1α [2], the “reduction of the Hif1α mRNA in tumors” value stood at 80%. The “reduction of the Hif1α protein” value in the data set on Hif1α [3] was 80%. Moreover, the “inhibition of Hif-1 protein” value with human Hif1α (clone Hif1-7, 0.1 ng/ml of doxycycline) was “more than 90%”; in the data set on human Hif1α (clone Hif1-7, 24 hours after doxycycline treatment), “more than 90%”. In the data set on human Hif1α (clone Hif1-7, dose-response experiment), the “doxycycline concentration at which maximal inhibition of Hif1α protein was reached” value was found to be 10 ng/mL.

B1: 2O2-Tyr731: transgene using the 2O2 promoter to express an shRNA against tyrosinase (SEQ ID NO: 46) (nucleic acid)
DNA: GAATTCCAGGCAAAACGCACCACGTGACGGAGCGTGACCGCGCGCCGAGCGCGCGCCAAGGTCGGGCAGGAAGAGGGCCTATTTCCCATGATTCCATCATATTTGCATATACGATACAAGGCTGTTAGAGAGATAATTAGAATTAATTCGACTGTAAACACAAAGATATTAGTATAAAATACGTGACGTAGAAAGTAATAATTTCTTGGGTAGTTTGCAGTTTTAAAATTATGTTTTAAAATGGACTATCATATGCTTACCGTAACTTGAAACTCCCTATCAGTGATAGAGATTATATATCTCCCTATCAGTGATAGAGACCGTGACATTTGCACAGATGATTCAAGAGATCATCTGTGCAAATGTCACTTTTTTAAGCTT
modifications: 2O2-Tyr731
Regarding B1, the “coat color of transgene-positive pups” value in the data set on tyrosinase (three of 20 pups carried the transgene) is “different degrees of coat color change”.

B2: 2O2-Tyr338: transgene using the 2O2 promoter to express an shRNA against tyrosinase (SEQ ID NO: 47) (nucleic acid)
DNA: GAATTCCAGGCAAAACGCACCACGTGACGGAGCGTGACCGCGCGCCGAGCGCGCGCCAAGGTCGGGCAGGAAGAGGGCCTATTTCCCATGATTCCATCATATTTGCATATACGATACAAGGCTGTTAGAGAGATAATTAGAATTAATTCGACTGTAAACACAAAGATATTAGTATAAAATACGTGACGTAGAAAGTAATAATTTCTTGGGTAGTTTGCAGTTTTAAAATTATGTTTTAAAATGGACTATCATATGCTTACCGTAACTTGAAACTCCCTATCAGTGATAGAGATTATATATCTCCCTATCAGTGATAGAGACCGGCAACTTCATGGGTTTCATTCAAGAGATGAAACCCATGAAGTTGCCTTTTTTAAGCTT
modifications: 2O2 promoter transgene; 2O2-Tyr338
Turning to B2, the “viability of transgene-positive embryos” value with tyrosinase (40 pups without transgene, two dead embryos with it) is on record as “embryonic lethality”.
